# In EP4796125A1, “TREATMENT OF PATIENT WITH NEGATIVE P53 GENE MUTATION, POSITIVE KRAS GENE MUTATION AND POSITIVE BRCA MUTATION” (Ascentawits Pharmaceuticals, Ltd., priority 2023, dated 2025):
# Assays:
# [1] = tested on: hepatocellular carcinoma; assay: Phase II clinical trial of AST-3424 conducted in China (CTR20191399); type: in vivo, human
# Description: The clinical trial registration number is CTR20191399.
# • 1. Male or female, aged ≥18 years. • 2. Pathohistologically confirmed advanced HCC that cannot be controlled by surgical resection or local therapy. • 3. Previously received standard systemic therapy, including but not limited to, Sorafenib and/or Oxaliplatin-containing systemic chemotherapy, Lenvatinib, Regorafenib, and/or Nivolumab, experienced disease progression, toxicity intolerance, or refusal to continue treatment with these drugs. • 4. At least one measurable lesion according to RECIST 1.1 criteria. Previously irradiated lesions cannot be considered as measurable lesions unless clear radiographic progression is observed after radiotherapy. • 5. […] Eastern Cooperative Oncology Group (ECOG) performance status score of 0 or 1. • 7. Life expectancy ≥ 12 weeks. • 8. With or without HBV or HCV infection. • a. Subjects with HBV infection must have HBV-DNA level less than 2,000 IU/ml, and receive antiviral therapy with entecavir, tenofovir disoproxil fumarate, or tenofovir alafenamide fumarate according to the national guidelines for the prevention and treatment of chronic hepatitis B. The therapy must be maintained during the study and continue for 6 months after the last dose. • b. Subjects with HCV infection (with detectable HCV-RNA or anti-HCV antibodies) may receive treatment according to medical practice. • 9. Child-Pugh score ≤ 6 points. • 10. No history of hepatic encephalopathy. • 11. Before starting to use the study drug, all toxicities from previous anticancer therapies (except alopecia, fatigue, or peripheral neuropathy) must have recovered to Grade 1 or baseline levels (NCI CTCAE Version 5). • 12. Laboratory tests must meet the following criteria. During 14 days before laboratory tests at screening, indicators cannot be corrected by blood transfusion, hematopoietic stimulating factor or albumin infusion is allowed to meet the inclusion criteria. • a. Hemoglobin ≥ 90 g/L; • b. Platelet count ≥ 80 × 10^9/L; • c. Absolute neutrophil count (ANC) ≥ 1.5 × 10^9/L; • d. Serum total bilirubin ≤ 3 mg/dL; • e. ALT and AST ≤ 5.0 × ULN; • f. International normalized ratio (INR) ≤ 2.3 or prothrombin time prolongation ≤ 6 seconds; • g. Albumin ≥ 29 g/L; • h. Creatinine clearance > 50 mL/min as measured according to the Cockcroft-Gault equation. • 13. No history of alcohol abuse, drug addiction or substance abuse within the past year. • 14. Fertile female patients must be in non-lactating and have a negative pregnancy test result within 5 days before the initiation of treatment (positive urine pregnancy test result needs to be confirmed by a serum pregnancy test). • 15. Fertile female and male subjects must agree to use effective contraceptive measures (e.g. surgical sterilization or condom or diaphragm contraceptive measures combined with spermicidal gel or intrauterine contraceptive device [IUD], etc.) with their partners from the start of study participation until 6 months after the last dose. • 16. Voluntary participation in this study, fully understanding of relevant risks, good compliance, and signing the informed consent form. Subjects may also sign a consent form for future biomedical research (FBR). However, subjects who would not participate in FBR may still participate in the main trial.
# • 1. Untreated active central nervous system (CNS) metastases or leptomeningeal disease. Subjects with adequately treated CNS metastases may participate if they are confirmed to be stable for at least 4 weeks by clinical examination and brain imaging (MRI or CT) during screening. • 2. History of other malignant tumors within 2 years, except for adequately treated basal cell carcinoma, carcinoma in situ at other sites, or other tumors of which the natural medical history and the treatment will not interfere with the safety or efficacy assessment of the current study. • 3. Major surgery (other than diagnostic surgery) performed within 4 weeks prior to the first dose. • 4. […]
# [2] = tested on: γH2AX protein in H460 cells; assay: WB detection of γH2AX protein (DNA double-strand damage); type: cell-based; conditions: AST-3424 alone or with 5 µM Nutlin-3, dose-dependent (Figures 24-26)
# Description: In the first experiment, the second experiment and the third experiment about the effect of the combination of AST-3424 and Nutlin-3 on Ser15-p53, Ser20-p53, Total p53, MDM2, and p21 proteins in H460 cells in Example 21, the applicant also performed WB detection of γH2AX protein.
# [3] = 6 cases positive (+) for BRCA gene mutation, as of March 11, 2024
# [4] = 8 cases negative (-) for BRCA gene mutation, as of March 11, 2024
# [5] = 8 cases positive (+) for p53 gene mutation which may affect protein expression (MUT), as of March 11, 2024
# [6] = 9 cases negative (-) for p53 gene mutation (WT), as of March 11, 2024
# [7] = 18 liver cancer subjects who completed the clinical efficacy evaluation
# [8] = 30 enrolled subjects, as of March 11, 2024
# [9] = subgroup of 5 cases negative (-) for BRCA gene mutation, Table 4 data
# [10] = subgroup of 5 cases negative (-) for p53 gene mutation or deficiency, Table 4 data
# [11] = subgroup of 5 cases positive (+) for BRCA gene mutation, Table 4 data
# [12] = subgroup of 5 cases positive (+) for p53 gene mutation or deficiency, Table 4 data
smiles,measurement,setting,value
C[C@H](OP(=O)(N1CC1)N1CC1)c1ccc([N+](=O)[O-])c(Oc2cccc(C(=O)N(C)C)c2)c1 [AST-3424],DCR,[1]; [3],66.7%
same,ORR,[1]; [3],16.7%
same,longest OS,[1]; [3],more than 13.8 months
same,longest PFS,[1]; [3],more than 11.5 months
same,mean OS,[1]; [3],more than 9.5 months
same,mean PFS,[1]; [3],4.5 months
same,DCR,[1]; [4],50%
same,ORR,[1]; [4],0%
same,longest OS,[1]; [4],more than 17.6 months
same,longest PFS,[1]; [4],2.9 months
same,mean OS,[1]; [4],more than 9.4 months
same,mean PFS,[1]; [4],1.9 months
same,DCR,[1]; [5],25%
same,ORR,[1]; [5],0%
same,longest OS,[1]; [5],> 14.0 months
same,longest PFS,[1]; [5],1.6 months
same,mean OS,[1]; [5],more than 9.3 months
same,mean PFS,[1]; [5],1.4 months
same,DCR,[1]; [6],77.8%
same,ORR,[1]; [6],22.2%
same,longest OS,[1]; [6],> 13.8 months
same,longest PFS,[1]; [6],more than 11.5 months
same,mean OS,[1]; [6],more than 7.7 months
same,mean PFS,[1]; [6],more than 4.1 months
same,DCR,[1]; [7],61.1%
same,ORR,[1]; [7],5.6%
same,longest OS,[1]; [8],> 17.6 months
same,longest PFS,[1]; [8],> 11.5 months
same,DCR,[1]; [9],60%
same,ORR,[1]; [9],0%
same,mean PFS,[1]; [9],1.976 months
same,DCR,[1]; [10],80%
same,ORR,[1]; [10],20%
same,mean PFS,[1]; [10],4.1 months
same,DCR,[1]; [11],80%
same,ORR,[1]; [11],20%
same,mean PFS,[1]; [11],3.82 months
same,DCR,[1]; [12],60%
same,ORR,[1]; [12],0%
same,mean PFS,[1]; [12],1.756 months
same,level of γH2AX protein,[2],upregulate
